Laboratory results published in US20060235012A1, “Carboline and betacarboline derivatives for use as hdac enzyme inhibitors” (Chroma Therapeutics Limited, priority 2003, published 2006).
pIC50: −log10 of the molar value.

molecular target: histone deacetylase activity (HeLa nuclear extract); experiment: HDAC fluorescent activity assay (Biomol Fluor de Lys), HeLa nuclear extract; type: biochemical; conditions: HeLa nuclear extract as HDAC source; Fluor de Lys substrate; IC50 range; read-out: Inhibitor Activity versus HDAC
Experimental: The ability of compounds of Examples 1 to 17 to inhibit histone deacetylase activities was measured using the commercially available HDAC fluorescent activity assay from Biomol. In brief, the Fluor de Lys™ substrate, a lysine with an epsilon-amino acetylation, is incubated with the source of histone deacetylase activity (HeLa nuclear extract) in the presence or absence of inhibitor. Deacetylation of the substrate sensitises the substrate to Fluor de Lys™ developer, which generates a fluorophore. Thus, incubation of the substrate with a source of HDAC activity results in an increase in signal that is diminished in the presence of an HDAC inhibitor.
Data are expressed as a percentage of the control, measured in the absence of inhibitor, with background signal being subtracted from all samples, as follows:— % activity=((S^i−B)/(S^o−B))×100 where S^i is the signal in the presence of substrate, enzyme and inhibitor, S^o is the signal in the presence of substrate, enzyme and the vehicle in which the inhibitor is dissolved, and B is the background signal measured in the absence of enzyme.
IC50 values were determined by non-linear regression analysis, after fitting the results of eight data points to the equation for sigmoidal dose response with variable slope (% activity against log concentration of compound), using Graphpad Prism software.
Histone deacetylase activity from crude nuclear extract derived from HeLa cells was used for screening. The preparation, purchased from 4C (Seneffe, Belgium), was prepared from HeLa cells harvested whilst in exponential growth phase. The nuclear extract is prepared according to Dignam J D 1983 Nucl. Acid. Res. 11, 1475-1489, snap frozen in liquid nitrogen and stored at −80° C. The final buffer composition was 20 mM Hepes, 100 mM KCl, 0.2 mM EDTA, 0.5 mM DTT, 0.2 mM PMSF and 20% (v/v) glycerol.

SMILES	pIC50
COc1ccc2[nH]c3c(c2c1)CCN(C(=O)CCCCCCC(=O)NO)C3 [Example 3]	> 6.48
COC(=O)[C@H]1Cc2c([nH]c3ccccc23)CN1C(=O)CCCCCCC(=O)NO [Example 4]	> 6.48
O=C(CCCCCC(=O)N1CCc2c([nH]c3ccccc23)C12CCCCC2)NO [Example 13]	6.00 to 6.48
O=C(CCCCCCCC(=O)N1CCc2c([nH]c3ccccc23)C1)NO [Example 5]	> 6.48
O=C(CCCCCCC(=O)N1CCc2c([nH]c3ccccc23)C12CCCCC2)NO [Example 14]	> 6.48
COc1ccc2[nH]c3c(c2c1)CCN(C(=O)CCCCCCCC(=O)NO)C3 [Example 7]	> 6.48
O=C(CCCCCCC(=O)N1Cc2[nH]c3ccccc3c2C[C@@H]1C(=O)O)NO [Example 16]	> 6.48
COc1ccc2[nH]c3c(c2c1)CCN(C(=O)CCCCCC(=O)NO)C3 [Example 6]	> 6.48
O=C(CCCCCCC(=O)N1CCc2c([nH]c3ccccc23)C1C(F)(F)F)NO (stereo not shown) [Example 9]	> 6.48
O=C(CCCCCCCC(=O)N1CCc2c([nH]c3ccccc23)C1C(F)(F)F)NO (stereo not shown) [Example 10]	> 6.48
O=C(CCCCCC(=O)N1CCc2c([nH]c3ccccc23)C1)NO [Example 2]	> 6.48
COC(=O)[C@H]1Cc2c([nH]c3ccccc23)CN1C(=O)CCCCCC(=O)NO [Example 11]	6.00 to 6.48
O=C(CCCCCC(=O)N1Cc2[nH]c3ccccc3c2C[C@@H]1C(=O)O)NO [Example 15]	6.00 to 6.48
O=C(CCCCCCCC(=O)N1Cc2[nH]c3ccccc3c2C[C@@H]1C(=O)O)NO [Example 17]	6.00 to 6.48
COC(=O)[C@H]1Cc2c([nH]c3ccccc23)CN1C(=O)CCCCCCCC(=O)NO [Example 12]	6.00 to 6.48
O=C(CCCCCC(=O)N1CCc2c([nH]c3ccccc23)C1C(F)(F)F)NO (stereo not shown) [Example 8]	6.00 to 6.48
